Measurements taken from ChEMBL document CHEMBL3351363 (J Med Chem, 2014).

Assays:
[1] = molecular target: T1, Muscarinic acetylcholine receptor M4 (Homo sapiens) (UniProt P08173); experiment: Antagonist activity at human M4 receptor expressed in HEK293T cells assessed as inhibition of carbachol-induced response by beta-arrestin engagement assay relative to untreated control; format: cell-based; details: HEK-293T
T1 sequence (whole entry): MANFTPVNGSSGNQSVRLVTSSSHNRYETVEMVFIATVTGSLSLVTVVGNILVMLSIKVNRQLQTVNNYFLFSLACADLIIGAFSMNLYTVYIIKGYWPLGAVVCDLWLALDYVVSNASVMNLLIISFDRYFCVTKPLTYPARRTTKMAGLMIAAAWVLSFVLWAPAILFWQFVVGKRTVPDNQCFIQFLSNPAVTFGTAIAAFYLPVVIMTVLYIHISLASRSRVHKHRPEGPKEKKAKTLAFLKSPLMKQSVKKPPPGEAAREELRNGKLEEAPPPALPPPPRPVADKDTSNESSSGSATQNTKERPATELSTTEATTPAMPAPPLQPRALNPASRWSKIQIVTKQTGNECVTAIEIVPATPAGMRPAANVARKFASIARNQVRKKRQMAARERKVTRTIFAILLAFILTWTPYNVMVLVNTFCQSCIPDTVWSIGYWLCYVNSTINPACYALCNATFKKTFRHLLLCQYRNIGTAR

[2] = molecular target: T1, Muscarinic acetylcholine receptor M4 (Homo sapiens); experiment: Antagonist activity at human M4 receptor expressed in HEK293T cells assessed as inhibition of carbachol-induced response by BRET based Gq protein engagement assay relative to untreated control; format: cell-based; details: HEK-293T
[3] = molecular target: T1, Muscarinic acetylcholine receptor M4 (Homo sapiens); experiment: Antagonist activity at human M4 receptor expressed in HEK293T cells assessed as inhibition of carbachol-induced response by BRET based Gi protein activation assay relative to untreated control; details: HEK-293T
[4] = molecular target: T2, Muscarinic acetylcholine receptor M2 (Homo sapiens, UniProt P08172); experiment: Displacement of [3H]NMS from human M2 receptor expressed in CHO cells by microplate scintillation counting based radioligand binding assay; format: cell-based
T2 sequence (P08172 whole entry): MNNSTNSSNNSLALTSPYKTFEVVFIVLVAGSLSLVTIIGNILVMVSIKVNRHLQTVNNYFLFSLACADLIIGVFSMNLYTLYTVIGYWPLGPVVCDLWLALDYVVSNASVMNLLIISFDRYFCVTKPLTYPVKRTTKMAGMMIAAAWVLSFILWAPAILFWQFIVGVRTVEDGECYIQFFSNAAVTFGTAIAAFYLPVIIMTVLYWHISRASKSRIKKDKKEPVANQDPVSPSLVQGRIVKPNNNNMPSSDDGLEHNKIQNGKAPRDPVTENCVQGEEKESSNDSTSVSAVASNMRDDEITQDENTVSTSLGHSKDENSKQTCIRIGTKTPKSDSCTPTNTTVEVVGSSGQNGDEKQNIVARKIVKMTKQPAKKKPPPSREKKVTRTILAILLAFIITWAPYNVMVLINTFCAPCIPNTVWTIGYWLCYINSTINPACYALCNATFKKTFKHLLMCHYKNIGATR

[5] = molecular target: T3, Muscarinic acetylcholine receptor M1 (Homo sapiens, UniProt P11229); experiment: Displacement of [3H]NMS from human M1 receptor expressed in CHO cells by microplate scintillation counting based radioligand binding assay; format: cell-based
T3 sequence (P11229 whole entry): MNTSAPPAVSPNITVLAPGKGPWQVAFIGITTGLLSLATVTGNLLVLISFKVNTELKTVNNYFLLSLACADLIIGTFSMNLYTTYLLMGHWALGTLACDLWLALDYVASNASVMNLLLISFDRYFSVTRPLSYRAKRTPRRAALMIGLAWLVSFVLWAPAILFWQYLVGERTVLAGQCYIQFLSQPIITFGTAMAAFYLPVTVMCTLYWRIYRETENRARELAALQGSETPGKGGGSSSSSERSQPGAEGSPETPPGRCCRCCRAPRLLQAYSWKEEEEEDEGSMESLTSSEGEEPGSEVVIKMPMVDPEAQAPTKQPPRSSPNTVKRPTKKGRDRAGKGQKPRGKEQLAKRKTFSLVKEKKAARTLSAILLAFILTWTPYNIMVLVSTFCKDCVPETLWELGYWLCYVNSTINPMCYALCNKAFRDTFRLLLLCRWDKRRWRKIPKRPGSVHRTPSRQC

[6] = molecular target: T4, Muscarinic acetylcholine receptor M4 (Homo sapiens, UniProt P08173); experiment: Displacement of [3H]NMS from human M4 receptor expressed in CHO cells by microplate scintillation counting based radioligand binding assay; format: cell-based
T4 sequence (P08173 whole entry): T1 sequence (whole entry)

[7] = molecular target: Muscarinic acetylcholine receptor M3 (Homo sapiens, UniProt P20309); experiment: Displacement of [3H]NMS from human M3 receptor expressed in CHO cells by microplate scintillation counting based radioligand binding assay; format: cell-based
[8] = molecular target: T5, Muscarinic acetylcholine receptor M5 (Homo sapiens, UniProt P08912); experiment: Displacement of [3H]NMS from human M5 receptor expressed in CHO cells by microplate scintillation counting based radioligand binding assay; format: cell-based
T5 sequence (P08912 whole entry): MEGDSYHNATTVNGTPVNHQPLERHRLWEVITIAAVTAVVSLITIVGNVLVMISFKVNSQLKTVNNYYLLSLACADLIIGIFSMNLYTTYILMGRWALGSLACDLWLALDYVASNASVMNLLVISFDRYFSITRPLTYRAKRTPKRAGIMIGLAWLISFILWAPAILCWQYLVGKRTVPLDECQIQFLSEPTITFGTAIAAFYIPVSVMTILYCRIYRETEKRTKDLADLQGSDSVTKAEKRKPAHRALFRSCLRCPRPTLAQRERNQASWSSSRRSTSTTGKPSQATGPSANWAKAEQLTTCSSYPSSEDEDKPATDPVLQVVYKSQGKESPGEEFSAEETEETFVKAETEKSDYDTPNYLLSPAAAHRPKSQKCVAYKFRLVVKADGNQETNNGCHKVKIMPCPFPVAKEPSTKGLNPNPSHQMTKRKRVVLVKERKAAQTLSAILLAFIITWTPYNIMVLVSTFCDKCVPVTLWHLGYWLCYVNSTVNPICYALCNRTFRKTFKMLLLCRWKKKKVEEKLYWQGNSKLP

Chain of Muscarinic acetylcholine receptor M3 (P20309 whole entry): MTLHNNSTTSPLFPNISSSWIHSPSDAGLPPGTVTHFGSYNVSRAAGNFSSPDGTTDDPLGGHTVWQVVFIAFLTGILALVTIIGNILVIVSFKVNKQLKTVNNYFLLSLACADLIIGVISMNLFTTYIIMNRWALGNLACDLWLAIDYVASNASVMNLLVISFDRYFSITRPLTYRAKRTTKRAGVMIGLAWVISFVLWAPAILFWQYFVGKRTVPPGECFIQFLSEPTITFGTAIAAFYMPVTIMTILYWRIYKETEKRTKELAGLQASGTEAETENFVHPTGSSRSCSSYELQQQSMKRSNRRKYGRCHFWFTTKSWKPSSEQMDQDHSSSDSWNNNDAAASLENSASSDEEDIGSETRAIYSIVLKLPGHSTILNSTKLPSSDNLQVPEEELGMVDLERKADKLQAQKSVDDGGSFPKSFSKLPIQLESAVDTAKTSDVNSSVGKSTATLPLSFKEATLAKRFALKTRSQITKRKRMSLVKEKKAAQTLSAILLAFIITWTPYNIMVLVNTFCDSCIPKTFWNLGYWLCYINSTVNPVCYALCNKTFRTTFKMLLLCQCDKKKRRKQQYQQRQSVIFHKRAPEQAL

Compound | Imax [1] [%] | Imax [2] [%] | Imax [3] [%] | Ki [4] [nM] | Ki [5] [nM] | Ki [6] [nM] | Ki [7] [nM] | Ki [8] [nM]
CN1CCN(CC(=O)N2c3ccccc3C(=O)Nc3cccnc32)CC1 | 67 | < 100 | < 100 | – | – | – | – | –
O=C1CCc2ccccc2N1CCCN1CCC(CCCCCCCCCCCCCO)CC1 | – | – | – | 479 | 186 | 95.5 | 339 | 339
O=C1CCc2ccccc2N1CCCN1CCC(CCCCCCCCCC2CCN(CCCN3C(=O)CCc4ccccc43)CC2)CC1 | – | – | – | 79.4 | 29.5 | 32.4 | 57.5 | 49
CN1CCC=C(c2nsnc2OCCCCCCCCCOc2nsnc2C2=CCCN(C)C2)C1 | – | – | – | 3.16 | 1.66 | 0.776 | 2.88 | 3.98
O=C1CCc2ccccc2N1CCCN1CCC(CCCCCCCCCCCO)CC1 | – | – | – | 417 | 123 | 112 | 575 | 347
CN1CCC=C(c2nsnc2OCCCC2CCN(CCCN3C(=O)CCc4ccccc43)CC2)C1 | – | – | – | 66.1 | 77.6 | 26.3 | 93.3 | 102
CN1[C@@H]2C[C@@H](OC(=O)[C@H](CO)c3ccccc3)C[C@H]1[C@@H]1O[C@@H]12 | 77 | < 100 | < 100 | – | – | – | – | –
